Patent EP1377579B1 (Aventis Pharmaceuticals Inc., priority 2000, dated 2002)
Where a name gives a salt, the structure may show the parent alone.

Experiments:
cdk4/cyclin D1 = cdk4/cyclin D1 (Homo sapiens, UniProt P11802); assay: Cyclin-dependent kinase assay, cdk4/cyclin D1; type: biochemical; details: cyclin D1/cdk4; GST-pRb substrate, 10 µM ATP
MDA-MB-435 = assay: In vitro proliferation assay (MTT), MDA-MB-435; type: cell-based, human; details: Homo sapiens, MDA-MB-435, MTT assay; value (SD, n) where given; read-out: MB-435 Breast (IC50 µM)
Outline: (§1)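 Cells plated at 1000 to 2500 cells/well, allowed to attach overnight, then exposed to compounds for 3 days. Viable cells estimated by MTT dye, solubilized in DMSO, absorbance at 570 nm; IC50 taken from raw data.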

PC-3 = assay: In vitro proliferation assay (MTT), PC-3; type: cell-based, human; details: Homo sapiens, PC-3, MTT assay; value (SD, n) where given; read-out: PC-3 Prostate (IC50 µM)
Outline: as §1

cdk1/cyclin B = cdk1/cyclin B (Homo sapiens, UniProt P06493); assay: Cyclin-dependent kinase assay, cdk1/cyclin B; details: CDK1 IC50, nM, Histone H1, 10 µM ATP
cdk2/cyclin E = cdk2/cyclin E (Homo sapiens, UniProt P24941); assay: Cyclin-dependent kinase assay, cdk2/cyclin E; details: CDK2 IC50, nM, GST-pRb substrate, 10 µM ATP

Sequence of cdk1/cyclin B (P06493 whole entry): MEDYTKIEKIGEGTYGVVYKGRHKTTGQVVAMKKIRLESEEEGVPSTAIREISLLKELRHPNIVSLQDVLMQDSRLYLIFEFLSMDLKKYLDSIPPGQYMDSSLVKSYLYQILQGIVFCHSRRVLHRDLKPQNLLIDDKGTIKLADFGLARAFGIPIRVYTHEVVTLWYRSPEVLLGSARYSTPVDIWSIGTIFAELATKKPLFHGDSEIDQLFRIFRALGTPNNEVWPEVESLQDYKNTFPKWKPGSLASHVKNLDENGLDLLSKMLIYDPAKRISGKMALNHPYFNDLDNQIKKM
Sequence of cdk1/cyclin B (P14635 whole entry partner): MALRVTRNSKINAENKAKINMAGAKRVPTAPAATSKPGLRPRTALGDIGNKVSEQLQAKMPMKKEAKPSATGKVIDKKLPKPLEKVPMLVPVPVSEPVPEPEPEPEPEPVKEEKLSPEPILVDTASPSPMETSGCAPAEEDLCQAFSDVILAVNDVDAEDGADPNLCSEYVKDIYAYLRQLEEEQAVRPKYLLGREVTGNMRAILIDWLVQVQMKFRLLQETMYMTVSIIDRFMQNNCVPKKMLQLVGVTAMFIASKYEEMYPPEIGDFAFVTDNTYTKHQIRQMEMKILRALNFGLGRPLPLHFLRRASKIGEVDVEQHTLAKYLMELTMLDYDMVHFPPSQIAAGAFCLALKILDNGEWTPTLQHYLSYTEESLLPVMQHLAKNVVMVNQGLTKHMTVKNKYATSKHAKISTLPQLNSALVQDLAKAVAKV
Sequence of cdk4/cyclin D1 (P11802 whole entry): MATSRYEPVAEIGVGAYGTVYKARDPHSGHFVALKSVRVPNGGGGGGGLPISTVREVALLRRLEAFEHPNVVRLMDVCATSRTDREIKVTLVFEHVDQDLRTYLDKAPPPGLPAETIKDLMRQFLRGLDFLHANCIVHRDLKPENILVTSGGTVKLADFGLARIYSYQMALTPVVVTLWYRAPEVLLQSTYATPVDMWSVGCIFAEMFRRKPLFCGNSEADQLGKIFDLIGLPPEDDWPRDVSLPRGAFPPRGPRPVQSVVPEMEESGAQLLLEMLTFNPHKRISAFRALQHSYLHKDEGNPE
Sequence of cdk4/cyclin D1 (P24385 whole entry partner): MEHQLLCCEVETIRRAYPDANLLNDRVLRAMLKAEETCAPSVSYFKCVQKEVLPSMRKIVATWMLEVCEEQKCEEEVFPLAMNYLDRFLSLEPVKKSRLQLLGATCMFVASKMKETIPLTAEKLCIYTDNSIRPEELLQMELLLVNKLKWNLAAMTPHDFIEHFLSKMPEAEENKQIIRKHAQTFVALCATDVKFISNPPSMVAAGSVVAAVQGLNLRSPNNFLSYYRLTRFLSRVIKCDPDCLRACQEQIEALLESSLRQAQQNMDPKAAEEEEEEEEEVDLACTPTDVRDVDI

Compound | IC50 (cdk4/cyclin D1) | IC50 (MDA-MB-435) | IC50 (PC-3) | IC50 (cdk1/cyclin B) | IC50 (cdk2/cyclin E)
C[C@H](NC(=O)N1CCC(Nc2nc(N[C@H]3CC[C@H](N)CC3)nc3c2ncn3C2CCCC2)CC1)c1ccccc1 [compound 161, trans-4-[2-(4-Amino-cyclohexylamino)-9-cyclopentyl-9H-purin-6-ylamino]-piperidine-1-carboxylic acid ((S)-1-phenyl-ethyl)-amide dihydrochloride] | 601 nM | 1.01 µM | 0.96 µM | 56 nM | 78 nM
N[C@H]1CC[C@H](Nc2nc(NC3CCN(C(=O)NC(=O)c4ccccc4)CC3)c3ncn(C4CCCC4)c3n2)CC1 [compound 172, trans-N-(1-{4-[2-(4-Amino-cyclohexylamino)-9-cyclopentyl-9H-purin-6-ylamino]-piperidin-1-yl}-methanoyl)-benzamide dihydrochloride] | 829 nM | 1.16 µM | 1.04 µM | 23 nM | 62 nM
N[C@H]1CC[C@H](Nc2nc(NC3CCN(C(=O)Nc4ccccc4OC(F)(F)F)CC3)c3ncn(C4CCCC4)c3n2)CC1 [compound 174, trans-4-[2-(4-Amino-cyclohexylamino)-9-cyclopentyl-9H-purin-6-ylamino]-piperidine-1-carboxylic acid (2-trifluoromethoxy-phenyl)-amide dihydrochloride] | 795 nM | 0.31 µM | 0.27 µM | 48 nM | 89 nM
N[C@H]1CC[C@H](Nc2nc(NC3CCN(C(=O)Nc4cc(C(F)(F)F)cc(C(F)(F)F)c4)CC3)c3ncn(C4CCCC4)c3n2)CC1 [compound 176, trans-4-[2-(4-Amino-cyclohexylamino)-9-cyclopentyl-9H-purin-6-ylamino]-piperidine-1-carboxylic acid (3,5-bis-trifluoromethyl-phenyl)-amide dihydrochloride] | 898 nM | 0.51 µM | 0.54 µM | 7 nM | 378 nM
CCCCCCNC(=O)N1CCC(Nc2nc(N[C@H]3CC[C@H](N)CC3)nc3c2ncn3C2CCCC2)CC1 [compound 185, trans-4-[2-(4-Amino-cyclohexylamino)-9-cyclopentyl-9H-purin-6-ylamino]-piperidine-1-carboxylic acid hexylamide dihydrochloride] | 280 nM | 0.29 µM | 0.41 µM | 72 nM | 79 nM
CC(=O)c1ccc(NC(=O)N2CCC(Nc3nc(N[C@H]4CC[C@H](N)CC4)nc4c3ncn4C3CCCC3)CC2)cc1 [compound 188, trans-4-[2-(4-Amino-cyclohexylamino)-9-cyclopentyl-9H-purin-6-ylamino]-piperidine-1-carboxylic acid (4-acetyl-phenyl)-amide dihydrochloride] | 170 nM | 0.48 µM | 0.5 µM | 14 nM | 31 nM
CC(=O)c1cccc(NC(=O)N2CCC(Nc3nc(N[C@H]4CC[C@H](N)CC4)nc4c3ncn4C3CCCC3)CC2)c1 [compound 189, trans-4-[2-(4-Amino-cyclohexylamino)-9-cyclopentyl-9H-purin-6-ylamino]-piperidine-1-carboxylic acid (3-acetyl-phenyl)-amide dihydrochloride] | 66 nM | 1 µM | 1.37 µM | 20 nM | 28 nM
N[C@H]1CC[C@H](Nc2nc(NC3CCN(C(=O)NCCc4ccccc4)CC3)c3ncn(C4CCCC4)c3n2)CC1 [compound 197, trans-4-[2-(4-Amino-cyclohexylamino)-9-cyclopentyl-9H-purin-6-ylamino]-piperidine-1-carboxylic acid phenethyl-amide dihydrochloride] | 381 nM | 0.91 µM | 1.09 µM | 200 nM | 8 nM
COc1cc(NC(=O)N2CCC(Nc3nc(N[C@H]4CC[C@H](N)CC4)nc4c3ncn4C3CCCC3)CC2)cc(OC)c1OC [compound 198, trans-4-[2-(4-Amino-cyclohexylamino)-9-cyclopentyl-9H-purin-6-ylamino]-piperidine-1-carboxylic acid (3,4,5-trimethoxy-phenyl)-amide dihydrochloride] | 7 nM | 2.85 µM | 31.8 µM | 40 nM | 20 nM

The remaining lines, values ahead:

IC50 (cdk4/cyclin D1) | IC50 (MDA-MB-435) | IC50 (PC-3) | IC50 (cdk1/cyclin B) | IC50 (cdk2/cyclin E) | Compound
2040 nM | 2.54 µM | 3.34 µM | 310 nM | 32 nM | CC(C)NC(=O)N1CCC(Nc2nc(N[C@H]3CC[C@H](N)CC3)nc3c2ncn3C2CCCC2)CC1 [compound 157, trans-4-[2-(4-Amino-cyclohexylamino)-9-cyclopentyl-9H-purin-6-ylamino]-piperidine-1-carboxylic acid isopropylamide dihydrochloride]
825 nM | 0.29 µM | 0.38 µM | 82 nM | 87 nM | N[C@H]1CC[C@H](Nc2nc(NC3CCN(C(=O)Nc4ccccc4C(F)(F)F)CC3)c3ncn(C4CCCC4)c3n2)CC1 [compound 158, trans-4-[2-(4-Amino-cyclohexylamino)-9-cyclopentyl-9H-purin-6-ylamino]-piperidine-1-carboxylic acid (2-trifluoromethyl-phenyl)-amide dihydrochloride]
357 nM | 1.36 µM | 1.69 µM | 85 nM | 94 nM | C[C@@H](NC(=O)N1CCC(Nc2nc(N[C@H]3CC[C@H](N)CC3)nc3c2ncn3C2CCCC2)CC1)c1ccccc1 [compound 160, trans-4-[2-(4-Amino-cyclohexylamino)-9-cyclopentyl-9H-purin-6-ylamino]-piperidine-1-carboxylic acid ((R)-1-phenyl-ethyl)-amide dihydrochloride]
739 nM | 5.03 µM | 4.99 µM | 151 nM | 86 nM | C=CCNC(=O)N1CCC(Nc2nc(N[C@H]3CC[C@H](N)CC3)nc3c2ncn3C2CCCC2)CC1 [compound 164, trans-4-[2-(4-Amino-cyclohexylamino)-9-cyclopentyl-9H-purin-6-ylamino]-piperidine-1-carboxylic acid allylamide dihydrochloride]
63 nM | 0.28 µM | 0.38 µM | 4 nM | 54 nM | N[C@H]1CC[C@H](Nc2nc(NC3CCN(C(=O)Nc4ccc(Cl)cc4Cl)CC3)c3ncn(C4CCCC4)c3n2)CC1 [compound 167, trans-4-[2-(4-Amino-cyclohexylamino)-9-cyclopentyl-9H-purin-6-ylamino]-piperidine-1-carboxylic acid (2,4-dichloro-phenyl)-amide dihydrochloride]
424 nM | 2.67 µM | 2.81 µM | 18 nM | 30 nM | CCOC(=O)NC(=O)N1CCC(Nc2nc(N[C@H]3CC[C@H](N)CC3)nc3c2ncn3C2CCCC2)CC1 [compound 173, trans-(1-{4-[2-(4-Amino-cyclohexylamino)-9-cyclopentyl-9H-purin-6-ylamino]-piperidin-1-yl}-methanoyl)-carbamic acid ethyl ester dihydrochloride]
377 nM | 0.71 µM | 0.71 µM | 77 nM | 85 nM | CCCCCNC(=O)N1CCC(Nc2nc(N[C@H]3CC[C@H](N)CC3)nc3c2ncn3C2CCCC2)CC1 [compound 184, trans-4-[2-(4-Amino-cyclohexylamino)-9-cyclopentyl-9H-purin-6-ylamino]-piperidine-1-carboxylic acid pentylamide dihydrochloride]
400 nM | 1.49 µM | 1.89 µM | 1000 nM | 237 nM | CC(C)(C)NC(=O)N1CCC(Nc2nc(N[C@H]3CC[C@H](N)CC3)nc3c2ncn3C2CCCC2)CC1 [compound 192, trans-4-[2-(4-Amino-cyclohexylamino)-9-cyclopentyl-9H-purin-6-ylamino]-piperidine-1-carboxylic acid tert-butyl-amide dihydrochloride]
88 nM | 0.72 µM | 0.89 µM | 40 nM | 15 nM | N#Cc1cccc(NC(=O)N2CCC(Nc3nc(N[C@H]4CC[C@H](N)CC4)nc4c3ncn4C3CCCC3)CC2)c1 [compound 194, trans-4-[2-(4-Amino-cyclohexylamino)-9-cyclopentyl-9H-purin-6-ylamino]-piperidine-1-carboxylic acid (3-cyano-phenyl)-amide dihydrochloride]
6 nM | 0.33 µM | 0.38 µM | 50 nM | 28 nM | CCOC(=O)c1cccc(NC(=O)N2CCC(Nc3nc(N[C@H]4CC[C@H](N)CC4)nc4c3ncn4C3CCCC3)CC2)c1 [compound 195, trans-3-[(1-{4-[2-(4-Amino-cyclohexylamino)-9-cyclopentyl-9H-purin-6-ylamino]-piperidin-1-yl} -methanoyl)-amino]-benzoic acid ethyl ester dihydrochloride]
6 nM | 0.5 µM | 0.59 µM | 350 nM | 2 nM | Cc1cccc(Cl)c1NC(=O)N1CCC(Nc2nc(N[C@H]3CC[C@H](N)CC3)nc3c2ncn3C2CCCC2)CC1 [compound 196, trans-4-[2-(4-Amino-cyclohexylamino)-9-cyclopentyl-9H-purin-6-ylamino]-piperidine-1-carboxylic acid (2-chloro-6-methyl-phenyl)-amide dihydrochloride]
